Data as given in article PMC3742671, “Structure, Antimicrobial Activities and Mode of Interaction with Membranes of Bovel Phylloseptins from the Painted-Belly Leaf Frog, Phyllomedusa sauvagii” (PLoS ONE, 2013).
pIC50: −log10 of the molar value. Like-named read-outs stand apart in the source and are kept apart here. Ends that are not written are not given here.

Key:
[1] = test system: Leishmania infantum (strain MHOM/MA/67/ITMAP-263) promastigotes; assay type: cell-based
Protocol: (§1) The effect of phylloseptins-S was evaluated against several bacterial strains and yeasts (Table 2). Bacteria were cultured in Luria-Bertani broth (LB), whereas yeasts were cultured in Yeast Peptone Dextrose medium (YPD), and minimal inhibitory concentrations (MICs) were determined by measuring the absorbance at 630 nm in 96-well microtitration plates, as described previously. Leishmanicidal activity of phylloseptins-S was also examined against promastigotes of different Leishmania species: Leishmania infantum (strain MHOM/MA/67/ITMAP-263), L. major (MHOM/SU/73/5-ASKH) and L. braziliensis (MHOM/BR/75/M2904). Culture of promastigotes and determination of the growth inhibition were performed as previously described, [22], [23].
Figure 3 Activity of phylloseptins-S against Leishmania infantum promastigotes. IC50 values were determined from a dose-response inhibition fit using GraphPad Prism 5.0 (Table 2). Results represent the mean ± S.E.M. and are representative of three experiments carried out in triplicates.

[2] = Circular dichroism spectroscopy in SDS micelles; assay type: physicochemical; settings: CD, peptide 30 µM in 80 mM SDS
Protocol: (§2) The far-ultraviolet circular dichroism (CD) spectra were recorded as described. Phylloseptins-S (30 µM) were solubilized either in 80 mM sodium dodecyl sulfate (SDS) or in phosphate-buffered saline (PBS: 10 mM phosphate, pH 7.3) containing 1 mg/mL of large unilamellar vesicles (LUVs) of 1,2-dimyristoyl-sn-glycero-3-phosphocholine (DMPC) and 1,2-dimyristoyl-sn-glycero-3-phosphoglycerol (DMPG) (3∶1 mol/mol). DMPC and DMPG were purchased from Avanti Polar Lipids, Inc. Each spectrum was the average of four scans. CD measurements are reported as Δ/n, where Δ is the dichroic increment and n is the number of residues in the peptide.
(§3) Figure 6 Circular dichroism spectra of synthetic phylloseptins-S (30 µM). (A) DMPC/DMPG (3∶1) large unilamellar vesicles in PBS (1 mg/mL). (B) 80 mM SDS. CD measurements are reported as the dichroic increment (Δε) per residue.

S. aureus ST1065 = experiment: Time-kill assay; assay type: cell-based; settings: for time to complete killing: peptide at two-fold above the MIC (MIC 6.25 µM), ∼2–3 10^6 cfu/mL in PBS, two experiments in triplicates
Protocol: The time-kill kinetics of phylloseptins-S against the Gram-negative bacteria E. coli ML-35p and the Gram-positive strain S. aureus ST1065 were evaluated as previously described with a dose of peptide corresponding to the MIC and two-fold above the MIC. Two experiments were realized in triplicates.
Figure 4 Time-kill curves of PLS-S1 (S1), -S2 (S2), and -S4 (S4). […] Controls correspond to bacteria incubated in PBS without peptide. The data are the means ± S.E.M. of two experiments carried out in triplicates.

[3] = Circular dichroism spectroscopy with DMPC/DMPG (3:1) large unilamellar vesicles; assay type: physicochemical; settings: CD, peptide 30 µM, DMPC/DMPG (3:1) LUVs 1 mg/mL in PBS pH 7.3
Protocol: as §2, §3

[4] = test system: human leukemia monocyte cell line THP-1; experiment: Cytotoxic activity, MTT; assay type: cell-based; settings: for IC50: 72 h, 37°C, RPMI + 10% FCS, peptide 3 to 50 µM, MTT read at 570 nm, average of three independent experiments in triplicates; for LC50: value stated jointly for the three peptides
Protocol: (§4) Hemolytic assays were performed using fresh human erythrocytes from a healthy donor according to a previously described protocol. Cytotoxic activity of PLS-S was also determined on the human leukemia monocyte cell line THP-1. 80 µL of 6.25×10^5 cells/mL were incubated for 72 h with 20 µL of peptide (3 to 50 µM, final concentrations) at 37°C and 5% CO2 in RPMI medium supplemented with 10% FCS. The cell viability was determined by adding 10 µL of methylthiazolyldiphenyl-tetrazolium bromide (MTT, 10 mg/mL) to the plate. After 4h incubation at 37°C, formazan was solubilized with 100 µL of a solution containing 50% isopropanol and 10% SDS, and the absorbance was measured at 570 nm. The lytic concentration 50 (LC50), which correspond to the peptide concentration producing 50% lysis, was determined with the GraphPad Prism® 5.0 software. Results were expressed as the mean of three independent experiments performed in triplicates.

S. cerevisiae = assay type: cell-based
Protocol: as §1

[5] = test system: L. major (MHOM/SU/73/5-ASKH) promastigotes; assay type: cell-based
Protocol: as §1

[6] = test system: C. parapsilosis ATCC 22019; assay type: cell-based
Protocol: as §1

[7] = test system: L. braziliensis (MHOM/BR/75/M2904) promastigotes; assay type: cell-based
Protocol: as §1

human erythrocytes = assay type: cell-based
Protocol: as §4

Substance | pIC50 [1] | helix content [2] | time to complete killing (S. aureus ST1065) | helix content [3] | IC50 [4] | LC50 [4] | MIC (S. cerevisiae) | pIC50 [5] | MIC [6] | pIC50 [7] | LC50 (peptide concentration producing 50% lysis) (human erythrocytes) | MIC (S. cerevisiae; YPD medium, absorbance at 630 nm, average of three independent experiments in triplicates) | killing kinetics (in words) (S. aureus ST1065; compared with PLS-S1 and -S2, MIC and two-fold above the MIC, in PBS)
FLSLIPHIVSGVASIAKHF-NH2 [PLS-S1] | 4.78 | 96% | ≤ 5 min | 70% | 23 µM | 23 µM | 12.5 µM | 4.90 | 100 µM | 4.82 | 39 µM |  | 
FLSLIPHIVSGVASLAKHF-NH2 [PLS-S2] | 4.73 | 65% | ≤ 5 min | 80% | 22.5 µM | 23 µM |  | 4.88 | 50 µM | 4.82 | 25 µM | 6.25 µM | 
FLSMIPHIVSGVAALAKHL-NH2 [PLS-S4] | 4.66 | 59% |  | 68% | 23 µM | 23 µM | 12.5 µM | 4.74 | 50 µM | 4.76 | 33 µM |  | slower
